According to patent US20190133122A1, “FUNGICIDAL OR BACTERICIDAL COMPOSITION AND METHOD FOR CONTROLLING DISEASE” (Nissan Chemical Corporation, priority 2016, published 2019):
Where a name gives a salt, the structure may show the parent alone.

Test system: cucumber gray mold fungus (Botrytis cinerea)
Assay: Preventive test against gray mold (sprayed cucumber cotyledon, cut leaf inoculated)
Format: in vivo
Settings: 1 ppm, active ingredient B alone; cucumber leaf, 20° C., 3 days after inoculation
Protocol: Such an agent was diluted with water to a predetermined concentration to obtain a test solution. Then, cucumber (variety: Sagami-hanjiro) was planted in a plastic pot of 90 cm^3, and in the cotyledon stage, 5 ml of the obtained test solution, was sprayed by a spray gun and air-dried. Thereafter, the treated leaf was cut off and placed in a plastic container which filled approximately 0.5 cm in depth water. A suspension of conidia of cucumber gray mold fungus (Botrytis cinerea) and a dissolved PDA culture medium were mixed at a ratio of 1:1 (mass ratio), and the mixture was dropped to inoculate the treated leaf with 30 μl. After the inoculation, the plastic container was sealed and left at 20° C. for 3 days, the ratio of the formed lesion occupying the inoculated leaf was measured, and the preventive value (observed value) was calculated in accordance with the following calculation formula.
Preventive value=[1−(treated plot lesion area ratio/untreated plot lesion area ratio)]×100
Further, from the preventive value at each agent concentration, a theoretical value expected by treatment of the mixing (theoretical value) was calculated by using the Colby method (Colby S. R. 1967, Weeds 15, 20-22), in order to analyze synergy. The calculation method is as follows.
X: preventive value of A agent (test solution obtained from active ingredient A) at x concentration
Y: preventive value of B agent (test solution obtained from active ingredient B) at y concentration
E: theoretical value expected by treatment of the mixture of A agent and B agent.
In the observed value and the theoretical value, calculated as the above, the obtained result is analyzed to be synergy if the observed value is larger than the theoretical value, to be antagonism if the theoretical value is larger than the observed value, and to be an additive effect if the observed value and the theoretical value are the same.

Row | Compound | Preventive value
1 | O=C(Nc1ccccc1-c1ccc(F)c(F)c1)c1nccnc1C(F)(F)F [Compound No. C50, pyraziflumid] | 70
2 | CON(C(=O)c1cn(C)nc1C(F)F)C(C)Cc1c(Cl)cc(Cl)cc1Cl (stereo not shown) [Compound No. C49, pydiflumetofen] | 45

Same assay, conditions: 5 ppm, active ingredient B alone; cucumber leaf, 20° C., 3 days after inoculation

Row | Compound | Preventive value
3 | C=CCSC(=O)n1c(N)c(-c2ccccc2C)c(=O)n1C(C)C [Compound No. H50, fenpyrazamine] | 56

Same assay, conditions: 10 ppm, active ingredient B alone; cucumber leaf, 20° C., 3 days after inoculation

Row | Compound | Preventive value
4 | CC(O)(Cn1cncn1)c1ccc(Oc2ccc(Cl)cc2)cc1C(F)(F)F (stereo not shown) [H51, mefentrifluconazole] | 53
5 | CC1(C)N=C(c2cnc3ccccc3c2)c2ccccc2C1(F)F [M20, quinofumelin] | 60
6 | CNC(=O)/C(=N/OC)c1ccccc1CO/N=C(C)/C=C/c1c(Cl)cccc1Cl [C25, fenaminstrobin] | 55

Same assay, conditions: 100 ppm, active ingredient B alone; cucumber leaf, 20° C., 3 days after inoculation

Row | Compound | Preventive value
7 | C[C@H]1O[C@H](O[C@H]2[C@H](O)[C@@H](O)[C@@H](O)[C@H](O)[C@@H]2O)[C@@H](N)C[C@@H]1NC(=N)C(=O)O [D05, kasugamycin] | 28
8 | COCC(=O)N(c1c(C)cccc1C)[C@H](C)C(=O)OC [A05, metalaxyl-M] | 5
9 | [Cl-].[Cu+2].[Cu+2].[OH-].[OH-].[OH-] [L08, copper oxychloride] | 5
10 | basic copper sulfate [L10] | 18
11 | C#CCOc1ccc(CCNC(=O)C(OCC#C)c2ccc(Cl)cc2)cc1OC (stereo not shown) [I08, mandipropamid] | 10
12 | Bacillus subtilis D747 strain [G13] | 28
13 | Cn1c(=O)c2sc3c(=O)n(C)c(=O)c3sc2c1=O [M23, dipymetitrone] | 54
14 | CO/C=C(/C(=O)OC)c1ccccc1CO/N=C(C)/C=C/c1ccc(Cl)cc1 [C22, enoxastrobin] | 85
15 | CCSS(=O)(=O)CC [M34, ethylicin] | 10
16 | COC(=O)N(OC)c1ccccc1COc1nc(Cl)c(Cl)cc1Cl [C38, triclopyricarb] | 69
17 | CN1OC(c2ccc(Cl)cc2)CC1(C)c1cccnc1 (stereo not shown) [H33, pyrisoxazole] | 9
18 | fosetyl-aluminium [M08] | 10

Same assay, conditions: Botrytis cinerea, 72 h, read-out: Preventive value

Row | Compound | pest or weed control at 100 ppm | pest or weed control at 10 ppm | pest or weed control at 1 ppm
19 | Cc1cccc(-n2nnn(C)c2=O)c1COc1ccn(-c2ccc(Cl)cc2)n1 [C51, 1-(2-[([1-(4-chlorophenyl)-1H-pyrazol-3-yl]oxy)-methyl]-3-methylphenyl)-4-methyl-1,4-dihydro-5H-tetrazol-5-one] | 48% |  | 
20 | COCC(=O)N(c1c(C)cccc1C)N1CCOC1=O [A07, oxadixyl] | 10% |  | 
21 | Clc1ccc(CSC(Cn2cncn2)=Nc2ccc(Cl)cc2Cl)cc1 [H21, imibenconazole] |  | 20% | 
22 | S=C(S)NCCNC(=S)S [L35, zineb] | 23% |  | 
23 | Cc1nc2c(F)c(F)ccc2cc1Oc1cccc(F)c1C(C)(C)O [M21, 2-(2-[(7,8-difluoro-2-methylquinolin-3-yl)oxy]-6-fluoro-phenyl)propan-2-ol] |  |  | 65%

Same assay, conditions: Botrytis cinerea, 72 h; 10 ppm, active ingredient B alone; cucumber leaf, 20° C., 3 days after inoculation; read-out: Preventive value

Row | Compound | pest or weed control at 10 ppm
24 | Cc1nnc(Cl)c(-c2c(F)cccc2F)c1-c1ccccc1 [M44, 3-chloro-4-(2,6-difluorophenyl)-6-methyl-5-phenyl-pyridazine] | 28%
25 | COC(=O)Nc1nc2ccccc2[nH]1 [B02, carbendazim] | 85%

Same assay, conditions: Botrytis cinerea, 72 h; 100 ppm, active ingredient B alone; cucumber leaf, 20° C., 3 days after inoculation; read-out: Preventive value

Row | Compound | pest or weed control at 100 ppm
26 | CC(C)(C)C(=O)C(Oc1ccc(Cl)cc1)n1cncn1 (stereo not shown) [H37, triadimefon] | 38%
27 | OCC1=C[C@H](N[C@H]2C[C@H](CO)[C@@H](O[C@@H]3O[C@H](CO)[C@@H](O)[C@H](O)[C@H]3O)[C@H](O)[C@H]2O)[C@H](O)[C@@H](O)[C@@H]1O [I01, validamycin] | 10%
28 | CCCC1COC(Cn2cncn2)(c2ccc(Cl)cc2Cl)O1 (stereo not shown) [H30, propiconazole] | 38%
29 | CCC(C)(NC(=O)c1cc(Cl)c(C)c(Cl)c1)C(=O)CCl (stereo not shown) [B08, zoxamide] | 15%
30 | [H]/N=C(/N)N[C@H]1[C@H](O)[C@@H](O)[C@H](O[C@@H]2O[C@@H](C)[C@](O)(C=O)[C@H]2O[C@@H]2O[C@@H](CO)[C@H](O)[C@@H](O)[C@@H]2NC)[C@@H](N/C(N)=N\[H])[C@@H]1O [D06, streptomycin] | 13%
31 | Cc1ccc(-c2c(Cl)nc(C#N)n2S(=O)(=O)N(C)C)cc1 [C41, cyazofamid] | 10%
32 | CN(C)C(=S)SSC(=S)N(C)C [L21, thiram] | 28%
33 | CCCOC(=O)NCCCN(C)C [G12, propamocarb hydrochloride] | 15%
34 | COc1ccc(C(=CC(=O)N2CCOCC2)c2ccc(Cl)cc2)cc1OC [I05, dimethomorph] | 18%
35 | CCNC(=O)NC(=O)/C(C#N)=N/OC [M02, cymoxanil] | 13%
36 | Cc1cc(O)no1 [A10, hymexazol] | 10%
37 | CCCOC/C(=N\c1ccc(Cl)cc1C(F)(F)F)n1ccnc1 [H39, triflumizole] | 10%
